Experimental data taken from patent publication US20260285880A1, “SUBSTITUTED DIHYDROTHIENOPYRIMIDINE COMPOUND, PREPARATION METHOD THEREFOR, AND USE THEREOF” (SHANGHAI YIDI BIOTECHNOLOGY CO., LTD., priority 2023, published 2026).

Target: Flpin-293-PDE4B2 cells (Homo sapiens, UniProt Q07343)
Assay: cell-based
Conditions: for inhibition at 0.001 µM: read-out: Cell Inhibition % @1 nM, 1 nM, Flpin-293-PDE4B2 cells; for inhibition at 0.01 µM: read-out: Cell Inhibition % @10 nM, 10 nM, Flpin-293-PDE4B2 cells; for inhibition at 0.1 µM: read-out: Cell Inhibition % @100 nM, 100 nM, Flpin-293-PDE4B2 cells

Sequence of Flpin-293-PDE4B2 cells (Q07343 1-564 isoform Q07343-2): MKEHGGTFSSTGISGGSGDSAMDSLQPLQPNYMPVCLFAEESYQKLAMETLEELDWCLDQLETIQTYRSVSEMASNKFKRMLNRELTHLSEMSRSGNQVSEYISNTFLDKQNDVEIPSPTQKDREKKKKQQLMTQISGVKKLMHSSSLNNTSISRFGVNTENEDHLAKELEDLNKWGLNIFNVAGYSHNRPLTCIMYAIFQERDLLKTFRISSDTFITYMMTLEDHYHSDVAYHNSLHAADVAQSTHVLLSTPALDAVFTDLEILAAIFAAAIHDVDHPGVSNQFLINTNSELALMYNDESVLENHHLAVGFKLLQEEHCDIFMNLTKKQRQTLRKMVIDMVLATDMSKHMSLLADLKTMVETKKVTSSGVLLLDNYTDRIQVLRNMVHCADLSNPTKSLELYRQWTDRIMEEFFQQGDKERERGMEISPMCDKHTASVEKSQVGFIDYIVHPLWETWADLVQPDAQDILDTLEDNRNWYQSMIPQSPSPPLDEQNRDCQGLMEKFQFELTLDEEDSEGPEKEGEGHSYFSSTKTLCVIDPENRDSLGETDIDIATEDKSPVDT

inhibition at 0.001 µM | inhibition at 0.01 µM | inhibition at 0.1 µM | Structure (SMILES)
2.9% | 31.3% | 89.1% | O=C1CCCN1c1ccc2c(c1)CCN(c1nc3c(c(NC4(CO)CCC4)n1)[S+]([O-])CC3)C2 (stereo not shown) [Compound 87]
32.9% | 97% | 101% | [O-][S+]1CCc2nc(N3CCc4cc(-c5ncco5)ccc4C3)nc(NC3(CO)CCC3)c21 (stereo not shown) [Compound 84]
 | 11.3% | 48% | Cn1cc2c(n1)CN(c1nc3c(c(NC4(CO)CCC4)n1)[S+]([O-])CC3)CC2 (stereo not shown) [Compound 30]
-2.7% | 15.7% | 84.8% | [O-][S+]1CCc2nc(N3CCc4cc(Cl)c(F)cc4C3)nc(NC3(CO)CCC3)c21 (stereo not shown) [Compound 96]
19.2% | 86% | 100% | [O-][S+]1CCc2nc(N3CCc4cc(-n5cccn5)ccc4C3)nc(NC3(CO)CCC3)c21 (stereo not shown) [Compound 91]
14% | 61% | 94.2% | CS(=O)(=O)c1ccc2c(c1)CCN(c1nc3c(c(NC4(CO)CCC4)n1)[S+]([O-])CC3)C2 (stereo not shown) [Compound 93]
61% | 99.4% | 101% | Cn1ccc(-c2ccc3c(c2)CCN(c2nc4c(c(NC5(CO)CCC5)n2)[S+]([O-])CC4)C3)n1 (stereo not shown) [Compound 77]
3.35% | 43.7% | 98.2% | [O-][S+]1CCc2nc(N3CCc4cc(N5CCCC5)ccc4C3)nc(NC3(CO)CCC3)c21 (stereo not shown) [Compound 92]
3.47% | 37.4% | 95.3% | [O-][S+]1CCc2nc(N3CCc4cc(N5CC(F)C5)ccc4C3)nc(NC3(CO)CCC3)c21 (stereo not shown) [Compound 89]
34.8% | 94.1% | 100% | Cn1cnc(-c2ccc3c(c2)CCN(c2nc4c(c(NC5(CO)CCC5)n2)[S+]([O-])CC4)C3)n1 (stereo not shown) [Compound 94]
41.7% | 97% | 101% | [O-][S+]1CCc2nc(N3CCc4cc(-c5cnco5)ccc4C3)nc(NC3(CO)CCC3)c21 (stereo not shown) [Compound 85]
14.2% | 47.4% | 96.4% | [O-][S+]1CCc2nc(N3CCc4cc(I)ccc4C3)nc(NC3(CO)CCC3)c21 (stereo not shown) [Compound 67]

More lines, now with the values behind:

Structure (SMILES) | inhibition at 0.001 µM | inhibition at 0.01 µM | inhibition at 0.1 µM
[O-][S+]1CCc2nc(N3CCc4cc(F)c(F)cc4C3)nc(NC3(CO)CCC3)c21 (stereo not shown) [Compound 95] | -4.2% | 6.8% | 66.7%
C[C@H]1c2ccc(N3CCCC3)cc2CCN1c1nc2c(c(Nc3cnn(CCC#N)c3)n1)[S+]([O-])CC2 (stereo partly shown) [Compound 220] | 13.8% | 73.4% | 100%
C[C@H]1c2ccc(N3CCCC3)cc2CCN1c1nc2c(c(Nc3cn(C)nn3)n1)[S+]([O-])CC2 (stereo partly shown) [Compound 214] | 1.8% | 15.1% | 64.1%
[O-][S+]1CCc2nc(N3CCc4cc(N5CCCC5)cc(F)c4C3)nc(NC3(CO)CCC3)c21 (stereo not shown) [Compound 182] | 3.68% | 40.6% | 98%
Cn1c2c(c3ccc(Cl)cc3c1=O)CCN(c1nc3c(c(NC4(CO)CCC4)n1)[S+]([O-])CC3)C2 (stereo not shown) [Compound 98] | -1.71% | 46.7% | 95.8%
[O-][S+]1CCc2nc(N3CCc4cc(Cl)ccc4C3)nc(Nc3ccc(CCO)cc3)c21 (stereo not shown) [Compound 139] | 16.2% | 78.6% | 102%
C[C@H]1c2ccc(N3CCCC3)cc2CCN1c1nc2c(c(N[C@H]3CCC(=O)N(C)C3)n1)[S+]([O-])CC2 (stereo partly shown) [Compound 202] | 52.5% | 99.4% | 101%
[O-][S+]1CCc2nc(N3CCc4nc(Br)sc4C3)nc(NC3(CO)CCC3)c21 (stereo not shown) [Compound 63] |  | 31.1% | 76.6%
C[C@H]1c2ccc(N3CCCC3)cc2CCN1c1nc2c(c(Nc3ccnn3CCO)n1)[S+]([O-])CC2 (stereo partly shown) [Compound 219] | 6.98% | 32.6% | 66.3%
[O-][S+]1CCc2nc(N3CCC4=C(COc5ccccc54)C3)nc(NC3(CO)CCC3)c21 (stereo not shown) [Compound 97] | 1.66% | 17.4% | 86.5%
[O-][S+]1CCc2nc(N3CCc4c(nn5cc(F)ccc45)C3)nc(NC3(CO)CCC3)c21 (stereo not shown) [Compound 32] | 23.5% | 74.2% | 97.7%
C[C@H]1c2ccc(N3CCCC3)cc2CCN1c1nc2c(c(NC3(CO)CC3)n1)[S+]([O-])CC2 (stereo partly shown) [Compound 203] | 14.8% | 84.1% | 99.9%
C[C@H]1c2ccc(N3CCCC3)cc2CCN1c1nc2c(c(NC3CS(=O)(=O)C3)n1)[S+]([O-])CC2 (stereo partly shown) [Compound 204] | 23.1% | 87.2% | 100%
Cn1cc(Nc2nc(N3CCc4cc(Cl)ccc4C3)nc3c2[S+]([O-])CC3)cn1 (stereo not shown) [Compound 141] | 11.4% | 49.2% | 96%
O=C(O)Cc1ccc(Nc2nc(N3CCc4cc(Cl)ccc4C3)nc3c2[S@+]([O-])CC3)cc1 [Compound 129] | 6.93% | 39.6% | 72.2%
[O-][S+]1CCc2nc(N3CC[C@@H]4c5ccc(Br)cc5OC[C@H]4C3)nc(NC3(CO)CCC3)c21 (stereo partly shown) [Compound 115] | 7.72% | 39.7% | 97.7%
COC[C@@H](CO)Nc1nc(N2CCc3cc(N4CCCC4)ccc3C2)nc2c1[S+]([O-])CC2 (stereo partly shown) [Compound 199] | -0.51% | 8.04% | 61.6%
[O-][S+]1CCc2nc(N3CCc4cc(N5CC6(COC6)C5)ccc4C3)nc(NC3(CO)CCC3)c21 (stereo not shown) [Compound 164] | 6.23% | 20% | 61.1%
C[C@H]1c2ccc(N3CCCC3)cc2CCN1c1nc2c(c(NC3(CO)CCOC3)n1)[S+]([O-])CC2 (stereo partly shown) [Compound 211] | 12.5% | 50.1% | 98.4%
N#CCc1ccc(Nc2nc(N3CCc4cc(Cl)ccc4C3)nc3c2[S+]([O-])CC3)cc1 (stereo not shown) [Compound 138] | 4.95% | 27.9% | 89.6%
O=C(O)Cc1ccc(Nc2nc(N3CCc4cc(Cl)ccc4C3)nc3c2[S@@+]([O-])CC3)cc1 [Compound 128] | -0.97% | 6.68% | 25.4%
C[C@H]1c2ccc(N3CCCC3)cc2CCN1c1nc2c(c(NCc3cnn(C)c3)n1)[S+]([O-])CC2 (stereo partly shown) [Compound 206] | 26.9% | 89.7% | 100%
[O-][S+]1CCc2nc(N3CC[C@@H]4c5ccc(F)cc5OC[C@H]4C3)nc(NC3(CO)CCC3)c21 (stereo partly shown) [Compound 109] | 17.7% | 65.4% | 97.8%
